# Measurements as given in patent US9849131B2 (AUTIFONY THERAPEUTICS LIMITED, priority 2009, dated 2017).
# What was measured:
# hKv3.2 = molecular target: T1, hKv3.2 (Homo sapiens, UniProt Q96PR1); assay: IonWorks Quattro assay, secondary analysis of activation time constant (Tauact); type: cell-based; details: classification from effect on Tauact
# T1 construct: expressed in transfected cells; host or cells: CHO-K1
# T1 sequence (Q96PR1 1-638): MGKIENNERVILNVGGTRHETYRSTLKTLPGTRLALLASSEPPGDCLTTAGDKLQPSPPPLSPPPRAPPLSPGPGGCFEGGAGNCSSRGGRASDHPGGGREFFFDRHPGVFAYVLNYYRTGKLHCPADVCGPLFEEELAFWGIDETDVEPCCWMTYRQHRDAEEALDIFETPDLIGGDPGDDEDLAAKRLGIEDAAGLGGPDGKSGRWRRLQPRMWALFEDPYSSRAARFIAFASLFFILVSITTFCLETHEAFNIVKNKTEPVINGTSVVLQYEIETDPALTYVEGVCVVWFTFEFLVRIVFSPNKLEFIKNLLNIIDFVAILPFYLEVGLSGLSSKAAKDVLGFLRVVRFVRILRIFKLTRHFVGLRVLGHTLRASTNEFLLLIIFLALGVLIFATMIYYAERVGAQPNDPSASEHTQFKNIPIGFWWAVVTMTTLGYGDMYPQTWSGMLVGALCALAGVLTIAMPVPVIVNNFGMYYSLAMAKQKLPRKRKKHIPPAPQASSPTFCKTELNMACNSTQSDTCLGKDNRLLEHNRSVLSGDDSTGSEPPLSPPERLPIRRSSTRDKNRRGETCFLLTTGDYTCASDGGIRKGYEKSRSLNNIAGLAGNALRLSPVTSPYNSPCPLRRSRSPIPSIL
# Experimental: A stable cell line expressing human Kv3.2 channels (hKv3.2) was created by transfecting Chinese Hamster Ovary (CHO)-K1 cells with a pCIH5-hKv3.2 vector. Cells were cultured in DMEM/F12 medium supplemented by 10% Foetal Bovine Serum, 1× non-essential amino acids (Invitrogen) and 500 ug/ml of Hygromycin-B (Invitrogen). Cells were grown and maintained at 37° C. in a humidified environment containing 5% CO2 in air.
# The day of the experiment, cells were removed from the incubator and the culture medium removed. Cells were washed with 5 ml of Dulbecco's PBS (DPBS) calcium and magnesium free and detached by the addition of 3 ml Versene (Invitrogen, Italy) followed by a brief incubation at 37° C. for 5 minutes. The flask was tapped to dislodge cells and 10 ml of DPBS containing calcium and magnesium was added to prepare a cell suspension. The cell suspension was then placed into a 15 ml centrifuge tube and centrifuged for 2 min at 1200 rpm. After centrifugation, the supernatant was removed and the cell pellet re-suspended in 4 ml of DPBS containing calcium and magnesium using a 5 ml pipette to break […] up the pellet. Cell suspension volume was then corrected to give a cell concentration for the assay of approximately 3 million cells per ml.
# Experiments were conducted at room temperature using IonWorks Quattro™ planar array electrophysiology technology (Molecular Devices Corp.) with PatchPlate™ PPC. Stimulation protocols and data acquisition were carried out using a microcomputer (Dell Pentium 4). Planar electrode hole resistances (Rp) were determined by applying a 10 mV voltage step across each well. These measurements were performed before cell addition. […] Following this, amphotericin-B solution was added to the intracellular face of the electrode to achieve intracellular access. Cells were held at −70 mV. Leak subtraction was conducted in all experiments by applying 50 ms hyperpolarizing (10 mV) prepulses to evoke leak currents followed by a 20 ms period at the holding potential before test pulses. From the holding potential of −70 mV, a first test pulse to −15 mV was applied for 100 ms and following a further 100 ms at −70 mV, a second pulse to 40 mV was applied for 50 ms. Cells were then maintained for a further 100 ms at −100 mV and then a voltage ramp from −100 mV to 40 mV was applied over 200 ms. In all experiments, the test pulses protocol was performed in the absence (pre-read) and presence (post-read) of the test compound. Pre- and post-reads were separated by the compound addition followed by a 3 minute incubation.
# The magnitude of the effect of a compound can be determined from the time constant (Tauact) obtained from a non-linear fit, using the equation given below, of the rise in Kv3.1 or Kv3.2 currents following the start of the depolarising voltage pulse. Y=(Y0−Ymax)*exp(−K*X)+Ymax
# Where: • Y0 is the current value at the start of the depolarising voltage pulse; • Ymax is the plateau current;
# K is the rate constant, and Tauact is the activation time constant, which is the reciprocal of K.
# [1] = test system: parvalbumin-positive interneurons in the somatosensory cortex; assay: Firing of parvalbumin-positive interneurons in somatosensory cortex slices, in vitro (Example 90); type: cell-based, mouse; details: vs TEA alone, p<0.05
# [2] = Blood concentrations in satellite animals of the electroshock seizure study; type: in vivo, rat; set-up: unbound concentration in blood: unit not given here; details: for unbound concentration in blood: rat
# Experimental: Testing involved determining the threshold for tonic hindlimb extensor seizures using a Hugo Sachs Electronik stimulator which delivers a constant current of 0.3 second duration, 50 Hz, sinewave form, fully adjustable between 1 and 300 mA. Stimuli were delivered via corneal electrodes (Stean T O, Atkins A R, Heidbreder C A, Quinn L P, Trail B K, Upton N. (2005) Br J Pharmacol. 144(5):628-35). Seizure threshold was determined using the ‘up and down’ method of Kimball et al. (1957)(Kimball A W, Burnett W T Jr, Doherty D G. (1957) Radiat Res. 7(1):1-12). The first animal tested in each group was stimulated with a current that might be expected to be close to the threshold for induction of a seizure. If a tonic seizure was not induced, then the next animal in the group received a stimulus 5 mA higher. If a tonic seizure was induced, then the next animal received a stimulus 5 mA lower. This is repeated for all animals within the control (vehicle) group. In the case of groups treated with a test compound steps of 5 to 10 mA were used. At the end of the study, blood samples were taken for analysis of the drug concentrations in this compartment (n=4/group).
# Blood concentrations of Compound 19 measured in satellite animals 2 hours after dosing were 5.3 and 9.11 μg/mL following the doses of 30 and 60 mg/kg p.o., respectively.
# Male CD-1 mice = assay: Psychostimulant (amphetamine)-induced hyperactivity in mice (Example 93); details: mouse; for Total Distance Travelled (cm): 60 minutes, mean ± sem
smiles,measurement,setting,value
"CC[C@H]1NC(=O)N(c2ccc(Oc3ccc(C)c(OC)c3)nc2)C1=O [Example 19, (5R)-5-ethyl-3-(6-{[4-methyl-3-(methyloxy)phenyl]oxy}-3-pyridinyl)-2,4-imidazolidinedione]",acts as positive or negative modulator of Kv3.1 and/or Kv3.2,hKv3.2,positive modulators
same,reversal of TEA-induced lowering of maximal firing frequency,[1]; TEA (0.5 mM) plus compound at 10 μM,significantly reversed
same,reversal of TEA-induced lowering of maximal firing frequency,[1]; TEA (0.5 mM) plus compound,significantly reversed
same,concentration at 2 h,"[2]; CD, whole blood, oral, rat satellite animals, 2 hours after 60 mg/kg p.o.",9110 ng/mL
same,unbound concentration in blood,[2]; 2 hours after 30 mg/kg p.o.,1.3
same,unbound concentration in blood,[2]; 2 hours after 60 mg/kg p.o.,2.21
same,effect on the increase in total distance travelled produced by amphetamine,Male CD-1 mice; 30 mg/kg p.o.,significantly reduced
same,effect on the increase in locomotor activity induced by amphetamine,"Male CD-1 mice; 60 mg/kg p.o., similar to clozapine 3 mg/kg i.p.",further reduced
same,Total Distance Travelled (cm),Male CD-1 mice; AMPH 2 mg/kg i.p. + compound 30 mg/kg p.o. 30 minutes before,5790 ± 1436 cm
same,Total Distance Travelled (cm),Male CD-1 mice; AMPH 2 mg/kg i.p. + compound 60 mg/kg p.o. 30 minutes before,1494 ± 378 cm
